We go through six compounds from article PMC7376718, “Flavonoids isolated from the South African weed Chromolaena odorata (Asteraceae) have pharmacological activity against uropathogens” (BMC Complementary Medicine and Therapies, 2020).

For data set [1], the system named is C. neoformans and A. fumigatus. Kind of data set: Mean MIC over the fungal isolates. The data set is classed as cell-based. The source says: (§1) The cultures used were Escherichia coli (American Type Culture Collection, ATCC 25922) labelled as 1, E. coli isolates (B1989/17 and B1962/17) labelled as 2 and 3 from equine urine, collected from the Department of Veterinary Tropical Diseases, Faculty of Veterinary Science, University of Pretoria, South Africa, Klebsiella pneumoniae isolate from commercial chicken eggs, Enterococcus faecalis (ATCC 29212), Pseudomonas aeruginosa (ATCC 27853), Staphylococcus aureus (ATCC 29213), Candida albicans from a Gouldian finch, Aspergillus fumigatus from a chicken and Cryptococcus neoformans from a cheetah. These microbial strains were maintained on MHA or SDA for bacteria and fungi respectively, while the isolates were maintained on blood agar.
(§2) Ten mg/mL of each fraction and 1 mg/mL of isolated compounds were prepared in 10% DMSO and tested against S. aureus, E. coli, K. pneumoniae, E. faecalis, P. aeruginosa, C. albicans, C. neoformans and A. fumigatus. Cultures were prepared by inoculating each microbial strain from prepared agar plates into sterilized MHB for bacterial and SDB for fungi in sterile McCartney bottles respectively. The inoculums were placed in an orbital shaker incubator. Bacterial strains were incubated at 37 °C for 18 h. Each bacterial culture was diluted in fresh MHB and the absorbance was measured at a wavelength of 560 nm using a microplate reader (Epoch Biotek). The readings were compared to a McFarland standard No. 1 correlating to approximately 3 × 10^8 cfu/mL). For fungi strains, cultures were incubated at 30 °C for 24 h (C. albicans), 72 h (C. neoformans) and 120 h (A. fumigatus) respectively. The resultant cells and spores were washed with sterile normal saline and absorbance was measured at a wavelength of 560 nm and turbidity was adjusted to a McFarland standard 1.This was further diluted in a 1:10 ratio in SDB to a turbidity of 5 × 10^5 cfu/mL. These diluted cultures (bacterial and fungi) were used for the screening following the serial microdilution method of Eloff.

The subject of data set [2] is Aspergillus fumigatus from a chicken. Kind of data set: MIC, serial microdilution with INT. It is filed as cell-based. The note with it: for MIC: Aspergillus fumigatus, read-out: Minimum inhibitory concentration.
Source text: as §1, §2
Background: In broth dilution the organism is exposed to a series of concentrations in liquid medium.

For data set [3], the system named is Candida albicans from a Gouldian finch. Kind of data set: MIC, serial microdilution with INT. The data set is classed as cell-based. The conditions noted are these: C. albicans, read-out: Minimum inhibitory concentration.
Source text: as §1, §2

For data set [4], the system named is Cryptococcus neoformans from a cheetah. As to the kind of experiment: MIC, serial microdilution with INT. The data set is classed as cell-based. The conditions noted are these: C. neoformans, read-out: Minimum inhibitory concentration.
Source text: as §1, §2

For data set [5], the system named is S. aureus, E. coli (1), E. coli (2), E. coli (3), K. pneumoniae. As to the kind of experiment: Mean MIC over the bacterial strains. The data set is classed as cell-based. The note with it: mean over the five bacterial strains of Table 3.
Source text: as §1, §2

Data set [6] relates to E. coli (B1962/17) isolate from equine urine, E. coli (3). As to the kind of experiment: MIC, serial microdilution with INT. It is filed as cell-based. The note with it: Escherichia coli, read-out: Minimum inhibitory concentration.
Source text: as §1, §2

For data set [7], the system named is E. coli (B1989/17) isolate from equine urine, E. coli (2). Kind of data set: MIC, serial microdilution with INT. The data set is classed as cell-based. The conditions noted are these: Escherichia coli, read-out: Minimum inhibitory concentration.
Source text: as §1, §2

Data set [8] has as its system Escherichia coli (ATCC 25922), E. coli (1). As to the kind of experiment: MIC, serial microdilution with INT. It is filed as cell-based. The conditions noted are these: for MIC: Escherichia coli, ATCC25922, E. coli (1), read-out: Minimum inhibitory concentration.
Source text: as §1, §2

For data set [9], the system named is Klebsiella pneumoniae isolate from commercial chicken eggs. Kind of data set: MIC, serial microdilution with INT. It is filed as cell-based. The note with it: K. pneumoniae; for MIC: Klebsiella pneumoniae, read-out: Minimum inhibitory concentration.
Source text: as §1, §2

Data set [10] relates to Staphylococcus aureus (ATCC 29213). Kind of data set: MIC, serial microdilution with INT. It is filed as cell-based. The conditions noted are these: ATCC29213, S. aureus, read-out: Minimum inhibitory concentration.
Source text: as §1, §2

Data set [11] deals with selected microbial strains. Kind of data set: MIC summarised over the selected microbial strains. It is filed as cell-based. The conditions noted are these: summary over bacterial and fungal strains.
Source text: as §1, with “These microbial strains were maintained on MHA or SDA for bacteria and fungi respectively, while the isolates were maintained on blood agar.” left out
Ten mg/mL of each fraction and 1 mg/mL of isolated compounds were prepared in 10% DMSO and tested against S. aureus, E. coli, K. pneumoniae, E. faecalis, P. aeruginosa, C. albicans, C. neoformans and A. fumigatus. […] Each bacterial culture was diluted in fresh MHB and the absorbance was measured at a wavelength of 560 nm using a microplate reader (Epoch Biotek). The readings were compared to a McFarland standard No. 1 correlating to approximately 3 × 10^8 cfu/mL). […] The resultant cells and spores were washed with sterile normal saline and absorbance was measured at a wavelength of 560 nm and turbidity was adjusted to a McFarland standard 1.This was further diluted in a 1:10 ratio in SDB to a turbidity of 5 × 10^5 cfu/mL. […]

Data set [12] is described as follows: in vitro. The procedure:
(§3) Different concentrations of the compounds ranging from 0.003 to 0.2 mg/mL were tested for cytotoxicity against three cell lines; Vero monkey kidney, C3A and Caco2. Vero cells were grown and maintained in MEM, supplemented with 0.1% gentamicin and 5% foetal calf serum, while Caco2 and C3A cells were grown and maintained in DMEM supplemented with 10% foetal calf serum, 1% non-essential amino acids and 1% penicillin-streptomycin. All cells were incubated in a 5% CO2 incubator at 37 °C. Doxorubicin chloride was used as positive control while 10% DMSO used in dissolving the test samples was used as the negative control. The 3-(4,5-dimethylthiazol)-2,5-diphenyl tetrazolium bromide (MTT) assay described by Mosmann with modification by McGaw et al. was used to determine the cytotoxicity of the test samples. The lethal concentration (LC50) value was calculated as the concentration of tested sample resulting in a 50% reduction of absorbance compared to untreated cells. Selectivity index (SI) values were calculated against the MIC using the formula: […]

The subject of another data set is Caco2 cells. Kind of data set: in vitro. The note with it: Caco2. The procedure: as §3
The subject of the next data set is E. coli. Also noted: method as in earlier work. The note with it: ref [70] Teffo et al.; cited from earlier work.
Another data set has as its system S. aureus. Also noted: method as in earlier work. The note with it: ref [70] Teffo et al.; cited from earlier work.
Data set [13] in a line: in vitro. The protocol:
as §3
The source holds these as a separate data set.

The nature of the next data set: Cytotoxicity, MTT assay. It is filed as cell-based. The note with it: human, C3A cells, read-out: Lethal concentration (LC50). On the technique in general: Formazan colour is commonly taken as a measure of viable cells.
The test system of data set [14] is Pseudomonas aeruginosa (ATCC 27853). Kind of data set: MIC, serial microdilution with INT. The conditions noted are these: ATCC27853, P. aeruginosa, read-out: Minimum inhibitory concentration. The data set is classed as cell-based.
Source text: as §1, §2

Data set [15] relates to Enterococcus faecalis (ATCC 29212). As to the kind of experiment: MIC, serial microdilution with INT. The data set is classed as cell-based. The conditions noted are these: ATCC29212, E. faecalis, read-out: Minimum inhibitory concentration.
Source text: as §1, §2

Values after ≈ are worked out from the molar mass of the structure shown. Like-named read-outs stand apart in the source and are kept apart here.

Protocol for Cytotoxicity, MTT assay: Different concentrations of the compounds ranging from 0.003 to 0.2 mg/mL were tested for cytotoxicity against three cell lines; Vero monkey kidney, C3A and Caco2. Vero cells were grown and maintained in MEM, supplemented with 0.1% gentamicin and 5% foetal calf serum, while Caco2 and C3A cells were grown and maintained in DMEM supplemented with 10% foetal calf serum, 1% non-essential amino acids and 1% penicillin-streptomycin. All cells were incubated in a 5% CO2 incubator at 37 °C. Doxorubicin chloride was used as positive control while 10% DMSO used in dissolving the test samples was used as the negative control. The 3-(4,5-dimethylthiazol)-2,5-diphenyl tetrazolium bromide (MTT) assay described by Mosmann [50] with modification by McGaw et al. [51] was used to determine the cytotoxicity of the test samples. The lethal concentration (LC50) value was calculated as the concentration of tested sample resulting in a 50% reduction of absorbance compared to untreated cells.

On to `C[C@@H]1[C@H](O)[C@@H](C)/C=C/C=C/C=C/C=C/C=C/C=C/C=C/[C@H](O[C@@H]2O[C@H](C)[C@@H](O)[C@H](N)[C@@H]2O)C[C@@H]2O[C@](O)(C[C@@H](O)C[C@@H](O)[C@H](O)CC[C@@H](O)C[C@@H](O)CC(=O)O[C@H]1C)C[C@H](O)[C@H]2C(=O)O` [Amphotericin B, amphotericin B, reference compound], for which the MIC in data set [1] (all time points of Table 3) is 70 ± 60 µg/mL (≈ 75.8 µM); in [2] (48 h), 31 µg/mL (≈ 33.5 µM); in data set [2] (72 h) it was 63 µg/mL (≈ 68.2 µM); in data set [2] (120 h), 125 µg/mL (≈ 135 µM); in data set [3] (24 h) it was 31 µg/mL (≈ 33.5 µM); in data set [3] (48 h), 63 µg/mL (≈ 68.2 µM). Besides, the MIC in [4] (72 h, 72 h) turned out to be 125 µg/mL (≈ 135 µM); in [4] (120 h, 120 h), 125 µg/mL (≈ 135 µM). Moreover, the “Mean MIC” value in [1] (all time points of Table 3, listed as Amp B) was 70 µg/mL.
Take `O=C(O)c1cn(C2CC2)c2cc(N3CCNCC3)c(F)cc2c1=O` [Ciprofloxacin, ciprofloxacin, reference compound]: the MIC was 20 µg/mL (≈ 60.4 µM) in [5]; 1 µg/mL (≈ 3.02 µM) in [6]; 0.05 µg/mL (≈ 0.151 µM) in data set [7]; 2 µg/mL (≈ 6.04 µM) in [8]; 50 µg/mL (≈ 151 µM) in data set [9]; 63 µg/mL (≈ 190 µM) in data set [10]. The same compound displayed a Minimum inhibitory concentration in data set [9] of 50 µg/mL (≈ 151 µM).
Consider `COc1ccc(-c2cc(=O)c3c(O)c(OC)c(O)cc3o2)cc1` [Compound 1, 5,7-dihydroxy-4′,6-dimethoxy-flavone], for which, in data set [11], the “MIC, range or verdict over the strains tested” value is “weak antimicrobial activity”. For the same compound, the MIC was 250 µg/mL (≈ 795 µM) in data set [5]; 63 µg/mL (≈ 200 µM) in data set [2] (48 h); 250 µg/mL (≈ 795 µM) in [2] (72 h); above 2500 µg/mL in data set [2] (120 h); above 250 µg/mL in data set [4] (48 h, 48 h); above 250 µg/mL in data set [4] (72 h, 72 h). For the same compound, the MIC is above 250 µg/mL in [6]; above 250 µg/mL in data set [7]; 250 µg/mL (≈ 795 µM) in data set [8]; 250 µg/mL (≈ 795 µM) in data set [9]; 250 µg/mL (≈ 795 µM) in data set [10]. The Minimum inhibitory concentration entry in data set [2] (48 h) is “good activity”.
With `COc1ccc(-c2oc3cc(O)cc(O)c3c(=O)c2O)cc1` [Compound 4, 3,5,7-trihydroxy-4′-methoxyflavone], the CC50 was 193 µg/mL (≈ 643 µM) in the data set “in vitro [12]” and above 200 µg/mL in the data set “in vitro [13]”. The results for the “Selectivity index (LC50/MIC)” value in the data set on Caco2 cells (E. coli (1)) and with Caco2 cells (S. aureus) were 1.544 and 0.772, respectively. For the same compound, in [11], the “MIC, range or verdict over the strains tested” value is on record as “weak antimicrobial activity”. Moreover, the entries for the “MIC / antibacterial activity” value in the data set with E. coli and in the data set with S. aureus were 125 µg/mL (≈ 416 µM) and 250 µg/mL (≈ 833 µM), respectively. Moreover, the MIC in [2] (48 h) is 250 µg/mL (≈ 833 µM); in [2] (72 h), above 250 µg/mL; in data set [2] (120 h), above 2500 µg/mL; in data set [4] (48 h, 48 h), above 250 µg/mL; in data set [4] (72 h, 72 h), above 250 µg/mL; in [6], above 250 µg/mL. In addition, the MIC in data set [7] is above 250 µg/mL; in data set [8] it was 125 µg/mL (≈ 416 µM); in [9], above 250 µg/mL; in data set [10], 250 µg/mL (≈ 833 µM).
With `COc1cccc2c1C(=O)c1c(O)c3c(c(O)c1C2=O)C[C@@](O)(C(=O)CO)C[C@@H]3O[C@H]1C[C@H](N)[C@H](O)[C@H](C)O1` [Doxorubicin, Doxorubicin chloride, reference compound], in the data set “Cytotoxicity, MTT assay”, the CC50 was 3.3 µg/mL.
For the compound `CNC(C)C1CCC(N)C(OC2C(N)CC(N)C(OC3OCC(C)(O)C(NC)C3O)C2O)O1` (stereo not shown) [Gentamicin, gentamicin, reference compound], the CC50 in the data set “in vitro [12]” and in the data set “in vitro [13]” was above 200 µg/mL each time. For the same compound, the MIC in [5] was 60 ± 110 µg/mL (≈ 126 µM); in data set [2] (120 h), above 2500 µg/mL; in data set [14] it was 8 µg/mL (≈ 16.8 µM); in [6], 8 µg/mL (≈ 16.8 µM); in [7], 31 µg/mL (≈ 64.9 µM); in data set [8] it was 20 µg/mL (≈ 41.9 µM). The MIC stood at 500 µg/mL (≈ 1050 µM) in [9], 500 µg/mL (≈ 1050 µM) in data set [15] and 8 µg/mL (≈ 16.8 µM) in data set [10]. Also, in [5], the “Mean MIC” value turned out to be 60 µg/mL. The Minimum inhibitory concentration worked out at 16 µg/mL (≈ 33.5 µM) in data set [8] (E. coli (1)) and 250 µg/mL (≈ 523 µM) in data set [9].
